From US20240382629A1, “HETEROBIVALENT AND HOMOBIVALENT AGENTS TARGETING FIBROBLAST ACTIVATION PROTEIN ALPHA AND/OR PROSTATE-SPECIFIC MEMBRANE ANTIGEN” (The Johns Hopkins University, priority 2021, published 2024)

Columns and labels:
[1] = system: U87 tumor; assay: PET imaging and tissue biodistribution in U87 tumor-bearing mice; type: in vivo, mouse
Protocol: Cell uptake assays, flow cytometry, and IHC were performed as described previously. Banerjee et al., 2019; Nimmagadda et al., 2018. PET imaging and biodistribution Sequential PET imaging and biodistribution studies were conducted to quantify and validate PET imaging data. Briefly, tumor-bearing mice were administrated approximately 7.4 MBq of radiotracer in 150 μL saline via tail-vein injection. They were randomized into the indicated groups of 3-4 mice before radiotracer injection.
In Experiment 1, bilateral xenografts of U87 (right flank) and PSMA+ PC3 PIP (left flank) tumors were established in male NSG mice (n=3), which underwent imaging followed by biodistribution over 24 h. […] A biodistribution study was further conducted with U87 tumors at 2 h post-injection (n=3) to compare the tissue distribution properties of ^64Cu-FP-L1 and ^64Cu-FAPI-04.

[2] = system: PSMA+ 786-O tumor; assay: PET imaging and biodistribution in PSMA+ 786-O ccRCC tumor-bearing mice; type: in vivo, mouse; conditions: 2 h
Protocol: Experiment 4 consisted of preliminary imaging (7.4 MBq) (n=2) and biodistribution studies (0.74 MBq) at 2 h in male NSG healthy mice (n=3) and tumor-bearing human clear cell renal cell carcinoma (ccRCC) PSMA+786-O tumors (n=4).

[3] = Stability of radiotracer in PBS and bovine serum albumin; type: physicochemical; conditions: in PBS and bovine serum albumin at 37° C.
Protocol: Click chemistry was used to conjugate the FAP and PSMA targeting moieties with the selected linker. Radiolabeling employed a rapid microwave-assisted method to generate ^64Cu-FP-L1 in nearly quantitative yield. High-performance liquid chromatography (HPLC) was used to remove unreacted ligand to ensure high specific radioactivity (>19 MBq/nmol). ^64Cu-FP-L1 was stable for at least 4 h in PBS and bovine serum albumin at 37° C.

[4] = system: PSMA+ PC3 PIP tumor; assay: PET imaging and biodistribution in PSMA+ PC3 PIP tumor-bearing mice; type: in vivo, mouse
Protocol: Cell uptake assays, flow cytometry, and IHC were performed as described previously. […] PET imaging and biodistribution Sequential PET imaging and biodistribution studies were conducted to quantify and validate PET imaging data. Briefly, tumor-bearing mice were administrated approximately 7.4 MBq of radiotracer in 150 μL saline via tail-vein injection. They were randomized into the indicated groups of 3-4 mice before radiotracer injection.

[5] = 4 h, NSG mice, U87 tumor, in %ID/g
[6] = 24 h, NSG mice, U87 tumor, in %ID/g
[7] = U87 in NSG mice, 20 μCi, n=3, G2/G3 and FAPI-04, in %ID/g
[8] = male NSG mice bearing U87 xenografts, 2 h, n=3-4
[9] = blocking with ZJ43 (500 nmol/kg)

N#C[C@@H]1CCCN1C(=O)CNC(=O)c1ccnc2ccc(OCCCNC(=O)CCc3cn(CCOCCOCCOCCC(=O)N[C@@H](CCCCNC(=O)CN4CCN(CC(=O)O)CCN(CC(=O)O)CC4)C(=O)NCCCCC(=O)N(CCCC[C@H](NC(=O)N[C@@H](CCC(=O)O)C(=O)O)C(=O)O)Cc4ccc(Br)cc4)nn3)cc12 [^64Cu-FP-L1, metal not drawn]
Biodistribution: Lac.gl [1, 5]: 3.72 ± 0.72
Biodistribution: Liver [1, 5]: 5.52 ± 0.39
Biodistribution: Lung [1, 5]: 3.31 ± 0.26
Biodistribution: Muscle [1, 5]: 1.08 ± 0.10
Biodistribution: Pancreas [1, 5]: 3.19 ± 0.11
Biodistribution: Sal.gl [1, 5]: 4.80 ± 0.82
Biodistribution: Sm.in [1, 5]: 4.26 ± 0.33
Biodistribution: Spleen [1, 5]: 2.05 ± 0.13
Biodistribution: Stomach [1, 5]: 2.02 ± 0.30
Biodistribution: Tumor [1, 5]: 13.81 ± 1.78
Tumor uptake, FAP+ U87 tumor ([1]; 4 h, bilateral U87 / PSMA+ PC3 PIP model): 19.05±5.89 % ID/g
Biodistribution: Bladder [1, 6]: 0.57 ± 0.13
Biodistribution: Blood [1, 6]: 0.91 ± 0.23
Biodistribution: Bone [1, 6]: 0.48 ± 0.08
Biodistribution: Fat [1, 6]: 0.23 ± 0.10
Biodistribution: Heart [1, 6]: 1.19 ± 0.34
Biodistribution: Kidney [1, 6]: 2.45 ± 0.32
Biodistribution: Lac.gl [1, 6]: 0.87 ± 0.14
Biodistribution: Liver [1, 6]: 4.21 ± 1.00
Biodistribution: Lung [1, 6]: 2.07 ± 0.40
Biodistribution: Muscle [1, 6]: 0.23 ± 0.04
Biodistribution: Pancreas [1, 6]: 0.72 ± 0.15
Biodistribution: Sal.gl [1, 6]: 0.92 ± 0.14
Biodistribution: Sm.in [1, 6]: 2.16 ± 0.29
Biodistribution: Spleen [1, 6]: 1.67 ± 0.32
Biodistribution: Stomach [1, 6]: 1.27 ± 0.14
Biodistribution: Tumor [1, 6]: 3.25 ± 0.05
Tumor uptake, FAP+ U87 tumor ([1]; 24 h, bilateral U87 / PSMA+ PC3 PIP model): 4.31±0.75 % ID/g
Biodistribution: Bladder [1, 7]: 6.81 ± 3.65
Biodistribution: Blood [1, 7]: 2.29 ± 0.17
Biodistribution: Bone [1, 7]: 3.32 ± 0.74
Biodistribution: Fat [1, 7]: 1.03 ± 0.39
Biodistribution: Heart [1, 7]: 1.58 ± 0.17
Biodistribution: Kidney [1, 7]: 9.05 ± 0.88
Biodistribution: Lacrimal [1, 7]: 3.32 ± 0.36
Biodistribution: Liver [1, 7]: 4.27 ± 0.53
Biodistribution: Lung [1, 7]: 2.71 ± 0.40
Biodistribution: Muscle [1, 7]: 1.52 ± 0.20
Biodistribution: Pancreas [1, 7]: 1.02 ± 0.72
Biodistribution: Salivary [1, 7]: 4.64 ± 0.26
Biodistribution: Sm. Intest. [1, 7]: 3.01 ± 0.08
Biodistribution: Spleen [1, 7]: 1.83 ± 0.14
Biodistribution: Stomach [1, 7]: 2.17 ± 0.12
Biodistribution: U87 [1, 7]: 7.79 ± 1.12
Bone uptake ([1]; bilateral U87 / PSMA+ PC3 PIP model): > 1 % ID/g
Biodistribution: Bladder [1, 8]: 6.16 ± 4.37 % ID/g
Biodistribution: Blood [1, 8]: 1.87 ± 0.24 % ID/g
Biodistribution: Bone [1, 8]: 2.02 ± 0.79 % ID/g
Biodistribution: Fat [1, 8]: 0.35 ± 0.20 % ID/g
Biodistribution: Heart [1, 8]: 1.36 ± 0.28 % ID/g
Biodistribution: Kidney [1, 8]: 7.26 ± 2.83 % ID/g
Biodistribution: Lacrimal glands [1, 8]: 4.74 ± 1.57 % ID/g
Biodistribution: Liver [1, 8]: 4.05 ± 0.53 % ID/g
Biodistribution: Lung [1, 8]: 2.80 ± 0.68 % ID/g
Biodistribution: Muscle [1, 8]: 1.11 ± 0.23 % ID/g
Biodistribution: Pancreas [1, 8]: 0.99 ± 0.18 % ID/g
Biodistribution: Salivary Glands [1, 8]: 3.10 ± 0.51 % ID/g
Biodistribution: Sm. Intestine [1, 8]: 2.32 ± 0.79 % ID/g
Biodistribution: Spleen [1, 8]: 1.39 ± 0.10 % ID/g
Biodistribution: Stomach [1, 8]: 1.89 ± 0.10 % ID/g
Biodistribution: U87 [1, 8]: 10.83 ± 1.02 % ID/g
Tumor uptake, PSMA+ 786-O [2]: 11.97±1.63 % ID/g
Renal uptake in PSMA+ 786-O xenograft-bearing NSG mice vs healthy NSG mice ([2]; head-to-head biodistribution): high renal uptake compared to healthy mice
Stability (stable for at least) [3]: at least 4 h
Uptake in PSMA+ PC3 PIP tumor ([4]; 2 h): 12.06±0.78 % ID/g
Uptake in PSMA+ PC3 PIP tumors with FAP blockade ([4]; 2 h, blocking with FAPI-04 (500 nmol/kg)): 18.56±2.02 % ID/g
Uptake in PSMA+ PC3 PIP tumor ([4]; 4 h): 18.89±3.95 % ID/g
Uptake in PSMA+ PC3 PIP tumor ([4]; 24 h): 10.51±1.82 % ID/g
Fold lower kidney uptake with ZJ43 vs unblocked ([4]; ZJ43 (500 nmol/kg)): > 2 fold
Kidney uptake with PSMA blockade [4, 9]: 2.97±0.23 % ID/g
Uptake in PSMA+ PIP tumor with PSMA blockade [4, 9]: 7.48±0.5 % ID/g
Tumor uptake and retention in PSMA+PC3 PIP tumor ([4]; from 1 to 24 h post-injection): > 10 % injected dose per gram of tissue
Kidney uptake, unblocked agent ([4]; unblocked): 8.03±0.89 % ID/g
